Source: ChEMBL document CHEMBL1201862, “PubChem BioAssay data set” (2004)
Values belong to the molecule of their own block, whether it stands above or below them. The source made the active and inactive calls.

Experiments:
[1] = target: T1, Tyrosine-protein phosphatase non-receptor type 7 (Homo sapiens, UniProt P35236); test: HTS HePTP Fluorescent Assay using OMFP substrate for In Vitro dose response studies. [Related pubchem assays (depositor defined):AID1059, AID1077, AID1784, AID2068, AID2085, AID435032, AID521]; type: functional
T1 sequence (P35236 whole entry): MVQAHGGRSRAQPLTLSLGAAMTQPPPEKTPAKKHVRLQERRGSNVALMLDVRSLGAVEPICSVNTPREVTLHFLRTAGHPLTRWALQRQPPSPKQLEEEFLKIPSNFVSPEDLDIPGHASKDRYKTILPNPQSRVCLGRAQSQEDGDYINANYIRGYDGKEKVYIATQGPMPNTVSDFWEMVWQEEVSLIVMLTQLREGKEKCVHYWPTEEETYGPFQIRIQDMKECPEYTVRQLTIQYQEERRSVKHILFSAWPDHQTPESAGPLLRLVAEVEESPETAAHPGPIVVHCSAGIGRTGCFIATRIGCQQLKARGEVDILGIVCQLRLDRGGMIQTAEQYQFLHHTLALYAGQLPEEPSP

[2] = target: T2, Tyrosine-protein phosphatase non-receptor type 22 (Homo sapiens, UniProt Q9Y2R2); test: SAR LYP1 Fluorescent Assay using OMFP substrate for In Vitro dose response studies - Set 2. [Related pubchem assays (depositor defined):AID1779, AID1784, AID2140, AID449726, AID488869]; type: functional
T2 sequence (Q9Y2R2 whole entry): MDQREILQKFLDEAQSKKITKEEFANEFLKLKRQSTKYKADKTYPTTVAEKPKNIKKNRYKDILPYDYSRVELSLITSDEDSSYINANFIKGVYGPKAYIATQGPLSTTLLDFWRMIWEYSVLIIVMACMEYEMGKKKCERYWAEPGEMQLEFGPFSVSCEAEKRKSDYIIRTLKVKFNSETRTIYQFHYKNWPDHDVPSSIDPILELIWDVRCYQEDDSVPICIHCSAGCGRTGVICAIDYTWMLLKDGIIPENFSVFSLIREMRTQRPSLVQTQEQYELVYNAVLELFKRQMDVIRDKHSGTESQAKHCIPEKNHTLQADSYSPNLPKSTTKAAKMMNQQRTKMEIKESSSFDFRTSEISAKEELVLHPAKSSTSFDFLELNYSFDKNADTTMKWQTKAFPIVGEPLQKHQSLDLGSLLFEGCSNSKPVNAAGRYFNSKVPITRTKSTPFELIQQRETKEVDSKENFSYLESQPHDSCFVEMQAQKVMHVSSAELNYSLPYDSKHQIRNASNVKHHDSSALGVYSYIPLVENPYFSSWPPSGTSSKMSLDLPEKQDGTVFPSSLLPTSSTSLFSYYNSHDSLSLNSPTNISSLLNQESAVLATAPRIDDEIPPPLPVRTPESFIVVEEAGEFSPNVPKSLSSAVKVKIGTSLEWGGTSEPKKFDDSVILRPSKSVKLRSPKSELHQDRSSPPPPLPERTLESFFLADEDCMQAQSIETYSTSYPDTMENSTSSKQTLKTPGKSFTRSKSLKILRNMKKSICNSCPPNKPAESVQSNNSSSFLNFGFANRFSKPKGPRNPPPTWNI

[3] = target: 26S proteasome non-ATPase regulatory subunit 14 (Homo sapiens, UniProt O00487); test: inhibition of proteasome subunit RPN11 – biochemical, fluorescence polarization, uHTS hits, confirmation (AID 602368); type: functional
[4] = target: T1, Tyrosine-protein phosphatase non-receptor type 7; test: HePTP (PTPN7) phosphatase inhibitor potency, SAR follow-up, biochemical, set 2 (AID 449736); type: functional
[5] = HIV-1 Env-mediated cell fusion inhibitors, dose response, CCR5-tropic Env (AID 2279); type: functional
[6] = target: T2, Tyrosine-protein phosphatase non-receptor type 22; test: PubChem AID 2135
[7] = target: T2, Tyrosine-protein phosphatase non-receptor type 22; test: SAR LYP1 Fluorescent Assay using OMFP substrate for In Vitro dose response studies - Set 3. [Related pubchem assays (depositor defined):AID1779, AID1784, AID2140, AID2686]; type: functional
[8] = target: 72 kDa type IV collagenase (Homo sapiens, UniProt P08253); test: Dose Response validation of uHTS RPN11 inhibitor hits using a MMP-2 Fluorescence assay.; type: functional
Prothrombin = Prothrombin (Bos taurus, UniProt P00735); test: thrombin inhibition, dose response, biochemical, fluorescence polarization, uHTS hits (AID 602369); type: functional
[9] = target: T2, Tyrosine-protein phosphatase non-receptor type 22; test: LYP1 Fluorescent Assay using OMFP substrate for In Vitro dose response studies. [Related pubchem assays (depositor defined):AID1779, AID1784, AID435024]
[10] = target: Tyrosine-protein phosphatase non-receptor type 12 (Homo sapiens, UniProt Q05209); test: SAR Selectivity Analysis of small molecule inhibitors of PEST using pCAP in a fluorescence assay. [Related pubchem assays (depositor defined):AID1779, AID1784, AID2135]; type: functional
[11] = target: T2, Tyrosine-protein phosphatase non-receptor type 22; test: SAR LYP1 Fluorescent Assay using pCAP substrate for In Vitro dose response studies - Set 2. [Related pubchem assays (depositor defined):AID1779, AID1784, AID2135, AID449727]; type: functional
[12] = target: T2, Tyrosine-protein phosphatase non-receptor type 22; test: inhibitors of LYP phosphatase, biochemical, fluorescence intensity, uHTS (AID 1779)
[13] = target: T2, Tyrosine-protein phosphatase non-receptor type 22; type: functional
[14] = target: Envelope glycoprotein gp160 (Human immunodeficiency virus 1, UniProt Q6QLK5); test: inhibitors of HIV fusion peptide binding, primary screen, biochemical, uHTS, fluorescence dequenching (AID 1986)
[15] = target: T1, Tyrosine-protein phosphatase non-receptor type 7; type: functional
[16] = target: T3, Zinc finger protein mex-5 (Caenorhabditis elegans, UniProt Q9XUB2); test: MEX-5/TCR-2 RNA interaction inhibitors, dose response, biochemical, C. elegans, fluorescence polarization (AID 1960)
T3 sequence (Q9XUB2 whole entry): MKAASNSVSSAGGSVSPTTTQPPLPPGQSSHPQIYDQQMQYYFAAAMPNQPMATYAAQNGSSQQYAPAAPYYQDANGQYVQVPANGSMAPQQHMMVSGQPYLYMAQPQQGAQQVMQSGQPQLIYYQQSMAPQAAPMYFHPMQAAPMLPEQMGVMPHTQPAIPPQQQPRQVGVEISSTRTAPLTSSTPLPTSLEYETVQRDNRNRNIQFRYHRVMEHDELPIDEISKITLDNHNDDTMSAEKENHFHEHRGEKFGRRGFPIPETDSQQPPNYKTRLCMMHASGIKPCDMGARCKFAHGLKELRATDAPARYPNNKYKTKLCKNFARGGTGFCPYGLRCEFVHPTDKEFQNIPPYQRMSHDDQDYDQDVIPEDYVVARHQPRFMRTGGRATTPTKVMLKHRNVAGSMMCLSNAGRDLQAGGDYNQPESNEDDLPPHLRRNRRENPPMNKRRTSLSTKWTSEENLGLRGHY

[17] = target: T2, Tyrosine-protein phosphatase non-receptor type 22; test: PubChem AID 2140
[18] = target: T4, RNA-binding protein pos-1 (Caenorhabditis elegans, UniProt G5EF15); test: inhibitors of POS-1/mex-3 RNA binding, dose response, biochemical, fluorescence polarization (AID 1964);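 also: purified POS-1 fused to maltose binding protein made in E. coli; potency of compounds blocking POS-1 binding to fluorescent RNA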
T4 sequence (G5EF15 whole entry): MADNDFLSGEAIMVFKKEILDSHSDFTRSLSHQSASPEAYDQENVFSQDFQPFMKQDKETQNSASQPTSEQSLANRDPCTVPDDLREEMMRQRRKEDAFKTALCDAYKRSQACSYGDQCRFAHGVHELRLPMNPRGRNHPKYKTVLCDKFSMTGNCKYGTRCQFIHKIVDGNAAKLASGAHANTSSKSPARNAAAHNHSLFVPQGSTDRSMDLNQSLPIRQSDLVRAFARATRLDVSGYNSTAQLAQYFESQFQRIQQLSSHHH

Mu-type opioid receptor [19] = target: T5, Mu-type opioid receptor (Homo sapiens, UniProt P35372); test: MOR antagonists, SAR follow-up, image-based (AID 2420); type: functional;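 also: compounds added before stimulation of receptor with agonist DAMGO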
[20] = target: T6, Kappa-type opioid receptor (Homo sapiens, UniProt P41145); test: SAR analysis of small molecule agonists of the kappa opioid receptor via a luminescent beta-arrestin assay. [Related pubchem assays (depositor defined):AID1777, AID1786, AID1966, AID2133, AID2136, AID2348, AID2352, AID2357, AID2359, AID2370, AID2420, AID2478, AID2491, AID2492, AID2493, AID2497, AID2498, AID2500, AID449737, AID488822, AID488842]; type: functional
[21] = target: T6, Kappa-type opioid receptor; test: KOR agonist analogs, imaging readout, SAR follow-up, image-based (AID 2359); type: functional
Mu-type opioid receptor [22] = target: T5, Mu-type opioid receptor; test: MOR agonists by imaging, SAR follow-up, image-based (AID 2352); type: functional
[23] = target: T7, Delta-type opioid receptor (Homo sapiens, UniProt P41143); test: DOR agonists, SAR follow-up, image-based (AID 2370); type: functional
[24] = target: T7, Delta-type opioid receptor; test: DOR antagonists, SAR follow-up, image-based (AID 2357); type: functional
[25] = target: T6, Kappa-type opioid receptor; test: KOR antagonists by imaging, SAR follow-up, image-based (AID 2348); type: functional
[26] = Counterscreen for AddAB inhibitors: absorbance-based bacterial cell-based high throughput dose response assay for inhibitors of bacterial viability. [Related pubchem assays (depositor defined):AID435030, AID449728, AID449731, AID488942, AID488955, AID488956]; type: functional
Exodeoxyribonuclease V = Exodeoxyribonuclease V (Escherichia coli (strain K12), UniProt P04993+P07648+P08394); test: E. coli RecBCD inhibitors, dose response, counter-screen for AddAB inhibitor project, absorbance, V66 E. coli, mutant T4 phage (AID 492957); type: functional, cell-based, Escherichia coli str. K-12 substr. MG1655
[27] = target: T8, Mannose-6-phosphate isomerase (Homo sapiens, UniProt P34949); test: PMI enzyme inhibitors, confirmation, biochemical, fluorescence intensity (AID 1535)
T8 sequence (P34949 whole entry): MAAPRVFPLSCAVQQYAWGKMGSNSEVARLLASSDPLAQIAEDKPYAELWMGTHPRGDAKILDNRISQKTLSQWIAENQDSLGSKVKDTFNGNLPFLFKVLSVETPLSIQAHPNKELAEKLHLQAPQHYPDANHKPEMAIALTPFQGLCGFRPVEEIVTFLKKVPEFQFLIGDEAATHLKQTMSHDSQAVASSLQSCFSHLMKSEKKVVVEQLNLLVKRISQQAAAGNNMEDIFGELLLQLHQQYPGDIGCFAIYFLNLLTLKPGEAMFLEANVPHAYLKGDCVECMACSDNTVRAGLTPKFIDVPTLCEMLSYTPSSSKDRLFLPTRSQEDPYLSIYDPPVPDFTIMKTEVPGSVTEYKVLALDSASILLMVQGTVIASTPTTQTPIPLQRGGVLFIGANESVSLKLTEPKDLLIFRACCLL

Phosphomannomutase 2 = Phosphomannomutase 2 (Homo sapiens, UniProt O15305); test: Counter screen SAR assay for PMM2 inhibitors via a fluorescence intensity assay. [Related pubchem assays (depositor defined):AID1545, AID1574]
[28] = target: Nucleotide-binding oligomerization domain-containing protein 2 (Homo sapiens, UniProt Q9HC29); test: PubChem AID 2334; type: functional
[29] = target: Nucleotide-binding oligomerization domain-containing protein 1 (Homo sapiens, UniProt Q9Y239); test: NOD1 signaling inhibitors, SAR follow-up, revised (AID 2333); type: functional
HEK293 = test: cells; conditions: Homo sapiens;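 also: cells exposed to compound for 14 hours overnight before viability readout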
Tumor necrosis factor = Tumor necrosis factor (Homo sapiens, UniProt P01375); test: TNFa-triggered NF-kB activation inhibitors, SAR follow-up, cell-based, revised (AID 2337); type: functional
[30] = target: T6, Kappa-type opioid receptor; test: SAR analysis of small molecule agonists of the kappa opioid receptor via a luminescent beta-arrestin assay - Set 3. [Related pubchem assays (depositor defined):AID1777, AID1785, AID1786, AID1966, AID2133, AID2136, AID2284, AID2500]; type: functional

T6 sequence (P41145 whole entry): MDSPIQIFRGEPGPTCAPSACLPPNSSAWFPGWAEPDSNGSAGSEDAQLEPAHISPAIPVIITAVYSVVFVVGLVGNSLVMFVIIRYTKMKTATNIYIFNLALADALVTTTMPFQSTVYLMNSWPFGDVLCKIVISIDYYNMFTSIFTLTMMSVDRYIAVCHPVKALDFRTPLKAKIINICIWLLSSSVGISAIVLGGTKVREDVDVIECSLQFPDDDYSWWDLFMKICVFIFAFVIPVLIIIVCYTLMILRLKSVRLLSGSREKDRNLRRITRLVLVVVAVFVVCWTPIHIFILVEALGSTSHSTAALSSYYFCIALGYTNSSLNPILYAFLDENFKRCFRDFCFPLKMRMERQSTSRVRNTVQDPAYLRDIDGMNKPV
T5 sequence (P35372 whole entry): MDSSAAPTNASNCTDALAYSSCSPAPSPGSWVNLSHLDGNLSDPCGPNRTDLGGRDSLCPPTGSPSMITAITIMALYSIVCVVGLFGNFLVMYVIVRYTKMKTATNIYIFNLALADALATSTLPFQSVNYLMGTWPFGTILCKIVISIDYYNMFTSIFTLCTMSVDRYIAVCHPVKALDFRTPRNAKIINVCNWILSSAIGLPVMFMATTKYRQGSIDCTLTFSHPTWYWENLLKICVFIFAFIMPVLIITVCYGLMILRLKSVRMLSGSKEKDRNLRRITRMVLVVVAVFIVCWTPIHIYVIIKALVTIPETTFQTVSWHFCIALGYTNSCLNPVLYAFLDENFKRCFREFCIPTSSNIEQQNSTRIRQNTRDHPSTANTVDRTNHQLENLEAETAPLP
T7 sequence (P41143 whole entry): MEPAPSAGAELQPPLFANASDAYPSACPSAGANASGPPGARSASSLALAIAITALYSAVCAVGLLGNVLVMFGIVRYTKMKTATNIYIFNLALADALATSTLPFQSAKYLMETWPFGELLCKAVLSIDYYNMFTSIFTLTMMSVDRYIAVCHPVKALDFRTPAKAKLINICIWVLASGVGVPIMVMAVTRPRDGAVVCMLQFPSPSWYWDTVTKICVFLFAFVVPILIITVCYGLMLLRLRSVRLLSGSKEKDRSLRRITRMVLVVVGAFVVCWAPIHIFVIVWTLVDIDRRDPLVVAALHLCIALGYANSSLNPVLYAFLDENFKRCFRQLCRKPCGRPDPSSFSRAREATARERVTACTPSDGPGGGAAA
Sequence of Tyrosine-protein phosphatase non-receptor type 12 (Q05209 whole entry): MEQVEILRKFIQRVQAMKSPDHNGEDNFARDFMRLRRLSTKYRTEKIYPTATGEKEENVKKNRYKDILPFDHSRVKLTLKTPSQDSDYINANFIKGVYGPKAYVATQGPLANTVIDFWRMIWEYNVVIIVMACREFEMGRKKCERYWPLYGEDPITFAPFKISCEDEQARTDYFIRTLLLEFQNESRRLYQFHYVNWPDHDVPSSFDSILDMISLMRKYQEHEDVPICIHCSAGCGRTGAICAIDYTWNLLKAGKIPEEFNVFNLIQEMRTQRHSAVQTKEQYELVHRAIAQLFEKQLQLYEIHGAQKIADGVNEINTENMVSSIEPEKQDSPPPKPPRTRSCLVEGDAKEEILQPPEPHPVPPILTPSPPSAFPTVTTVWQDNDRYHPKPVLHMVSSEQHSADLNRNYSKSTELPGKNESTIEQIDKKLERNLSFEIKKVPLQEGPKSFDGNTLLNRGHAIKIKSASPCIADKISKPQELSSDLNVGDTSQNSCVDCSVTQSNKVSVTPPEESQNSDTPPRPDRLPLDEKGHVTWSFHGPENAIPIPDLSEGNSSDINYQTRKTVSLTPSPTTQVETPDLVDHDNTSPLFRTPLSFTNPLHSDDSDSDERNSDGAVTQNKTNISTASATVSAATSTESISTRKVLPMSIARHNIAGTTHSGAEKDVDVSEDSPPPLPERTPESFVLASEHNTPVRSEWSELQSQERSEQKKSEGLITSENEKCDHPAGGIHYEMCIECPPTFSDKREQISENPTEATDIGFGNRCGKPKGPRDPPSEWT
Sequence of Phosphomannomutase 2 (O15305 whole entry, the tested form may be a part): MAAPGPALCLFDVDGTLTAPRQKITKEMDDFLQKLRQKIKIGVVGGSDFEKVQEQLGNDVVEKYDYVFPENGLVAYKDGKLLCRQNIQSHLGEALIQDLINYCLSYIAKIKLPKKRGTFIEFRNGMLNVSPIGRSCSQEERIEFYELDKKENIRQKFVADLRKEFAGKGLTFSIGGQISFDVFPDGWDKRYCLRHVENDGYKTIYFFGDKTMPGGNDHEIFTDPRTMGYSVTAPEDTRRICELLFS
Sequence of 26S proteasome non-ATPase regulatory subunit 14 (O00487 whole entry): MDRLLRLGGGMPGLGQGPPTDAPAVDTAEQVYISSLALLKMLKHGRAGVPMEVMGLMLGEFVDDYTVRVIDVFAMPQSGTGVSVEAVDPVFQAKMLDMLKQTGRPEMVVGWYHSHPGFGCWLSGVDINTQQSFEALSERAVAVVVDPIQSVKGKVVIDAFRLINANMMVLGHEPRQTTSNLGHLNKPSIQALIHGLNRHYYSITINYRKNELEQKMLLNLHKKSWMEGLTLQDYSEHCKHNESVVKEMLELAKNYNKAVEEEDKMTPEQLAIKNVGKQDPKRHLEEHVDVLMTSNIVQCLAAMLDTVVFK
Sequence of Nucleotide-binding oligomerization domain-containing protein 2 (Q9HC29 whole entry, the tested form may be a part): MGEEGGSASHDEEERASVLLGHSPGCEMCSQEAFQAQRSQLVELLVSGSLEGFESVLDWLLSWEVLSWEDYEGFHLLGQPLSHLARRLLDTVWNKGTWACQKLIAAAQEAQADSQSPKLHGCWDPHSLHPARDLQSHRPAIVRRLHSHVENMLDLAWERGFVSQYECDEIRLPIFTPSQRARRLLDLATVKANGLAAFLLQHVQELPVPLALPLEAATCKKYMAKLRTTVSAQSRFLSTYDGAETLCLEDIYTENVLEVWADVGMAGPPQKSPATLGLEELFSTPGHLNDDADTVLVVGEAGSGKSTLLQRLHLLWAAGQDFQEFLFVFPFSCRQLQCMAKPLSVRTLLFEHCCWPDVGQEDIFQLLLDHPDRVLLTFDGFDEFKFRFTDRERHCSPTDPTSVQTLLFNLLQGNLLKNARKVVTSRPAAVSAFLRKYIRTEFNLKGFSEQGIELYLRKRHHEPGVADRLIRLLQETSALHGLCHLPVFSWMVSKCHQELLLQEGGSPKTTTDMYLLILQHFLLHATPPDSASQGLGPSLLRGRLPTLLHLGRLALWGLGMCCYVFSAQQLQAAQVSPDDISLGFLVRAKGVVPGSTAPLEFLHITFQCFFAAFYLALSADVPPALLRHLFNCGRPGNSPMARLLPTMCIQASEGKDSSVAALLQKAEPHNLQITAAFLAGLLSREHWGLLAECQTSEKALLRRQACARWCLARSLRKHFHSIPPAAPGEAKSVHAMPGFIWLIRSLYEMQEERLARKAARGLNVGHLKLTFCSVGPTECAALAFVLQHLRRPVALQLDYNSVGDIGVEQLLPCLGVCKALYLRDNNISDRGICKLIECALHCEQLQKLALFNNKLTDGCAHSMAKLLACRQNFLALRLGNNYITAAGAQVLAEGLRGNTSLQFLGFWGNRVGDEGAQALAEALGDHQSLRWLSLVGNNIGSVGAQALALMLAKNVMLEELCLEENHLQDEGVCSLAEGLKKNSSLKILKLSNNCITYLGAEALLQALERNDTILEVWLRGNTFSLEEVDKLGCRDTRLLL
Sequence of Nucleotide-binding oligomerization domain-containing protein 1 (Q9Y239 whole entry, the tested form may be a part): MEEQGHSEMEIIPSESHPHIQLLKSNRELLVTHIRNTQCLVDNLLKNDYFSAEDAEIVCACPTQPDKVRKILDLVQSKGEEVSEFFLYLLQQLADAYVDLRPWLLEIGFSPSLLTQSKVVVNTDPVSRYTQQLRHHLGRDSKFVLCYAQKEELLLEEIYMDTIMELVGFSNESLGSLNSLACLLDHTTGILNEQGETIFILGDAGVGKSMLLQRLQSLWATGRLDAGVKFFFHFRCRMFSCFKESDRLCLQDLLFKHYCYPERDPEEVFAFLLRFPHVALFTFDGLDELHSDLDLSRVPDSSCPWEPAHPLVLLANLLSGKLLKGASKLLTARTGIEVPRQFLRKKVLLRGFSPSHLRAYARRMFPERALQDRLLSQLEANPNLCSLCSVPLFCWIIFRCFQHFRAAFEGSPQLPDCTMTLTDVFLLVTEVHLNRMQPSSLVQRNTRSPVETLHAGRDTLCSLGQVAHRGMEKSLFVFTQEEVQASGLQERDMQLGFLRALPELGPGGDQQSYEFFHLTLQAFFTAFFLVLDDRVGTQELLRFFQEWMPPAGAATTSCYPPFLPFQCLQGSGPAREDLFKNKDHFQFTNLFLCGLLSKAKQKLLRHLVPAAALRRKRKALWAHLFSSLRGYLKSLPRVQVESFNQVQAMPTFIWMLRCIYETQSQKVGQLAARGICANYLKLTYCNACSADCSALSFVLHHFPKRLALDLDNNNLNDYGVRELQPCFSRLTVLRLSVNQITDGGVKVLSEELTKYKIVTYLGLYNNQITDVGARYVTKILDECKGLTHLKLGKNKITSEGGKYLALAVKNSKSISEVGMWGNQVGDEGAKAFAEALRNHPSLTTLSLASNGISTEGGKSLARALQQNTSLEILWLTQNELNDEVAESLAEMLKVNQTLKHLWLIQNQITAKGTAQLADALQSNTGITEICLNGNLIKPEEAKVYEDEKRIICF
Sequence of Tumor necrosis factor (P01375 whole entry): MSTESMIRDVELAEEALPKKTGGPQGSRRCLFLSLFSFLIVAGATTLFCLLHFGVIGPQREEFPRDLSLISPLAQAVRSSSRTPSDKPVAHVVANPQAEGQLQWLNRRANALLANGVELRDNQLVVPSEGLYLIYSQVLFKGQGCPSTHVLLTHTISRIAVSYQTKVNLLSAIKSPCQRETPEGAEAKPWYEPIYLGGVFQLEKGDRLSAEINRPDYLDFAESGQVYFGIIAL

SMILES: O=C(O)CCCN1C(=O)/C(=C/c2ccc(-c3nc4ccccc4s3)o2)SC1=S
IC50 [1]: 24.6 µM (active)
IC50 [2]: 3.92 µM (active)
IC50 [3]: 5.26 µM (active)
IC50 [4]: 0.608 µM (active)
IC50 [5]: 4.43 µM (active)
IC50 [6]: 3.69 µM (active)
IC50 [7]: 11.2 µM (active)
IC50 [8]: > 100 µM (inactive)
IC50 (Prothrombin): 34.5 µM (active)
IC50 [9]: 6.14 µM (active)
IC50 [10]: 1.63 µM (active)
IC50 [11]: 3.1 µM (active)
IC50 [12]: 7.71 µM (active)
IC50 [13]: 4.77 µM (active)
IC50 [14]: 11.7 µM (active)
IC50 [15]: 11.5 µM (active)
EC50 [16]: 20.4 µM (active)
IC50 [17]: 16 µM (active)
EC50 [18]: 3.39 µM (active)

SMILES: Cc1cccnc1NC(=O)c1ccc([N+](=O)[O-])o1
IC50 [26]: 29.9 µM (inactive)
IC50 (Exodeoxyribonuclease V): > 119 µM (inactive)

SMILES: O=C(Nc1nc2ccccc2n1Cc1ccccc1Cl)C1CCCCC1
IC50 [28]: > 20 µM (inactive)
IC50 [29]: > 20 µM (inactive)
IC50 (HEK293): > 20 µM (inactive)
IC50 (Tumor necrosis factor): > 20 µM (inactive)

The remaining lines, values ahead:

IC50 (Mu-type opioid receptor [19]): > 32 µM (inactive)
EC50 [20]: > 10 µM (inactive)
EC50 [21]: > 32 µM (inactive)
EC50 (Mu-type opioid receptor [22]): > 32 µM (inactive)
EC50 [23]: > 32 µM (inactive)
IC50 [24]: > 32 µM (inactive)
IC50 [25]: > 32 µM (inactive)
SMILES: Cc1ccc2[nH]c(=O)c(CN(C)C(=O)c3ccccn3)cc2c1

IC50 [27]: > 50 µM (inactive)
IC50 (Phosphomannomutase 2): > 100 µM (inactive)
SMILES: CCOc1ccc(-c2nnc(S)o2)cc1

EC50 [30]: > 20 µM (inactive)
SMILES: c1ccc(CSc2nnc(-c3ccccn3)n2Cc2ccccc2)cc1
